≈ marks a conversion by molar mass, not a printed value. Calls of active or inactive are those of the source. The calls are words filed in the database; no cut-off is given here. A value given as a limit tells only on which side of the number the result lay.

The target of data set [1] is T1, UDP-3-O-acyl-N-acetylglucosamine deacetylase (Pseudomonas aeruginosa (strain ATCC 15692 / PAO1 / 1C / PRS 101 / LMG12228), UniProt P47205).
T1 sequence (P47205 whole entry): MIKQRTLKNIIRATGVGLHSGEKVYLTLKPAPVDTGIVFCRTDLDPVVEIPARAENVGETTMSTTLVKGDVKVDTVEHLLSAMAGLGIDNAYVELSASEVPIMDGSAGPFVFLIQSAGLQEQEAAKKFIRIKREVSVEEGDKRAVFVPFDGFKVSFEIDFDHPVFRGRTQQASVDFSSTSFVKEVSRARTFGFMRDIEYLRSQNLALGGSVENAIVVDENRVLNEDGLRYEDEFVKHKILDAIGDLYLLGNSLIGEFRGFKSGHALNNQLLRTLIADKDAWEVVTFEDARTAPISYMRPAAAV
The data set can be described thus: Inhibition of Pseudomonas aeruginosa LpxC.

Data set [2] has as its system Pseudomonas aeruginosa. As to the kind of experiment: Antibacterial activity against efflux pump knock-down Pseudomonas aeruginosa PAO280 by twofold broth microdilution technique. Type of data set: functional.
The subject of data set [3] is Pseudomonas aeruginosa. The data set can be described thus: Antibacterial activity against wild type Pseudomonas aeruginosa UI-18 by NCCLS method. Type of data set: functional.
The test system of data set [4] is Pseudomonas aeruginosa. As to the kind of experiment: Antibacterial activity against wild type Pseudomonas aeruginosa. Type of data set: functional.
The nature of data set [5]: Half life in human hepatocytes. Type of data set: ADME, cell-based, Liver, Hepatocyte.
Data set [6] can be described thus: Half life in rat hepatocytes. Type of data set: ADME, cell-based, Liver, Hepatocyte.
A short description of data set [7]: Kinetic solubility of the compound. Type of data set: physicochemical. As to conditions: read-out: Kinetic_solubility.
The target in data set [8] is T2, UDP-3-O-acyl-N-acetylglucosamine deacetylase (Escherichia coli K-12, UniProt P0A725).
T2 sequence (P0A725 whole entry): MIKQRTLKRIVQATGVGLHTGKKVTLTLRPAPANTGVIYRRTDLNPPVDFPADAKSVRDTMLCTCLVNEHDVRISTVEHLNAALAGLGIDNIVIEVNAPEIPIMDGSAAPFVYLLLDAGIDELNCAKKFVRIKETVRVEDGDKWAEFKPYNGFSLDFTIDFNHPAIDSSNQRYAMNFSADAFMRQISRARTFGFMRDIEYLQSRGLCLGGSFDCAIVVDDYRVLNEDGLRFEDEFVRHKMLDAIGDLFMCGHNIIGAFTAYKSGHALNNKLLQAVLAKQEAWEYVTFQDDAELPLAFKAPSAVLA
As to the kind of experiment: Inhibition of Escherichia coli LpxC.

Data set [9] concerns Pseudomonas aeruginosa. The data set can be described thus: Antibacterial activity against Pseudomonas aeruginosa C53. Type of data set: functional.
A short description of data set [10]: Kinetic solubility of the compound at pH 6.5. Type of data set: physicochemical. The settings on record: buffer, read-out: Kinetic_solubility.
For data set [11], the system named is Pseudomonas aeruginosa. As to the kind of experiment: Antibacterial activity against wild type Pseudomonas aeruginosa UI-18 infected in iv dosed mouse. Type of data set: functional. The settings on record: UI-18, iv, read-out: PD50.
Data set [12] concerns Pseudomonas aeruginosa. The data set can be described thus: Antibacterial activity against wild type Pseudomonas aeruginosa UI-18 infected in sc dosed mouse. Type of data set: functional, organism-based.

In data set [1], `CC[C@H](O)[C@@](C)(OCc1ccc(-c2ccccc2)cc1)C(=O)NO` came in with an IC50 of 8 nM. Moreover, the MIC is 3 µg/mL (≈ 9.11 µM) in [2] and over 64 µg/mL in data set [3].
As for `C[C@@](OCc1ccc(-c2ccccc2)cc1)(C(=O)NO)[C@@H](O)c1ncco1`, in [1], the IC50 is 3 nM. The results for the MIC in [2] and in data set [3] were 0.25 µg/mL (≈ 0.679 µM) and 8 µg/mL (≈ 21.7 µM), respectively.
In [1], `C[C@@](OCc1ccc(-c2ccccc2)cc1)(C(=O)NO)[C@@H](O)c1ccon1` returned an IC50 of 0.4 nM. Besides, the figures for the MIC in [2] and in data set [3] were 0.06 µg/mL (≈ 0.163 µM) and 6 µg/mL (≈ 16.3 µM), respectively.
With `CC(CO)(NC(=O)c1ccc(-c2ccccc2)cc1)C(=O)NO` (racemic), the MIC is over 64 µg/mL in [4], 32 µg/mL (≈ 102 µM) in data set [2] and over 64 µg/mL in data set [3]. This molecule had an IC50 in [1] of 286 nM. The half-life in data set [5] came to 3.83 h; in [6], 3.67 h. Besides, in [7], the solubility kinetic worked out at 200 µM (≈ 62.9 µg/mL).
With `C[C@@](OCc1ccc(-c2ccccc2)cc1)(C(=O)NO)[C@@H](O)c1cccnc1`, in data set [1], half-maximal inhibition (IC50) was put at 18 nM. In addition, the MIC in [2] is 0.5 µg/mL (≈ 1.32 µM); in data set [3], 32 µg/mL (≈ 84.6 µM).
Regarding `CC(C)C[C@H](O)[C@](C)(OCc1ccc(-c2ccccc2)cc1)C(=O)NO`, the values for the MIC in data set [2] and in data set [3] were 64 µg/mL (≈ 179 µM) and over 64 µg/mL, respectively.
In data set [1], `C[C@@H](O)[C@](C)(OCc1ccc(-c2ccccc2)cc1)C(=O)NO` gave an IC50 of 4 nM. Further, the MIC in data set [2] came to 0.75 µg/mL (≈ 2.38 µM); in data set [3] it was 64 µg/mL (≈ 203 µM).
In the case of `C[C@H](O)[C@](C)(OCc1ccc(-c2ccccc2)cc1)C(=O)NO`, the results for the MIC in data set [2] and in data set [3] were 0.5 µg/mL (≈ 1.59 µM) and 32 µg/mL (≈ 101 µM), respectively.
`O=C(NO)[C@@H](Cc1ccc2ccccc2c1)NS(=O)(=O)c1ccc2ccccc2c1` displayed a Ki in [8] of 20 nM. In [9], this molecule gave an MIC of 4 µg/mL (≈ 9.51 µM).
`Cc1cc([C@H](O)[C@](C)(OCc2ccc(-c3ccccc3)cc2)C(=O)NO)no1`: the half-life in [5] turned out to be 0.333 h. Besides, the MIC in data set [2] came to 0.015 µg/mL (≈ 0.0392 µM); in data set [3], 1.75 µg/mL (≈ 4.58 µM). In addition, in data set [10], the solubility kinetic is 59 µM (≈ 22.6 µg/mL).
For `CC(CO)(COc1ccc(-c2ccccc2)cc1)C(=O)NO` (configuration not stated), the IC50 in data set [1] was 390 nM. Also, in data set [5], the half-life was found to be 1.43 h. Also, the solubility kinetic in data set [7] was determined as 26 µM (≈ 7.83 µg/mL).
In turn, `CC(CO)(CCc1ccc(-c2ccccc2)cc1)C(=O)NO` (configuration not stated) registered an IC50 in data set [1] of 3.3 nM. The half-life in data set [5] amounted to 1.2 h. Moreover, the results for the MIC in data set [2] and in data set [3] were 0.5 µg/mL (≈ 1.67 µM) and 16 µg/mL (≈ 53.4 µM), respectively. Moreover, the solubility kinetic in data set [7] is 89 µM (≈ 26.6 µg/mL).
For the molecule `CC(C)[C@H](O)[C@](C)(OCc1ccc(-c2ccccc2)cc1)C(=O)NO`, the MIC in [2] is 32 µg/mL (≈ 93.2 µM); in [3], over 64 µg/mL.
As for `CCCC[C@H](O)[C@](C)(OCc1ccc(-c2ccccc2)cc1)C(=O)NO`, the IC50 in data set [1] is 90 nM. This counts as double-digit nanomolar.
Take `CCc1ccc(-c2ccc(C(=O)N[C@H](C(=O)NO)[C@@H](C)O)cc2)cc1`: in data set [4], the MIC turned out to be 4 µg/mL (≈ 11.7 µM). In addition, the IC50 in data set [1] is 8 nM. Moreover, the half-life in data set [5] is 3.83 h; in data set [6] it was 0.75 h.
As for `Cn1nncc1[C@H](O)[C@](C)(OCc1ccc(-c2ccccc2)cc1)C(=O)NO`, the IC50 in [1] stood at 26 nM. Further, the results for the MIC in [2] and in [3] were 2 µg/mL (≈ 5.23 µM) and over 64 µg/mL, respectively.
In data set [1], `C[C@@](OCc1ccc(-c2ccccc2)cc1)(C(=O)NO)[C@@H](O)c1cc(CO)on1` showed an IC50 of 0.6 nM. For the same molecule, the half-life in [5] is 2.33 h. The values for the MIC in data set [2] and in [3] were 0.015 µg/mL (≈ 0.0376 µM) and 1 µg/mL (≈ 2.51 µM), respectively. For the same molecule, the solubility kinetic in [10] is 130 µM (≈ 51.8 µg/mL). The ED50 in data set [11] came to 37 mg/kg. The outcome in data set [12] was inactive.
In the case of `C[C@@](OCc1ccc(-c2ccccc2)cc1)(C(=O)NO)[C@@H](O)c1ccno1`, in data set [1], inhibition was half-maximal at 0.8 nM (IC50). In addition, the MIC in data set [2] came out at 0.125 µg/mL (≈ 0.339 µM); in data set [3], 8 µg/mL (≈ 21.7 µM).
In turn, `Cn1ccnc1[C@H](O)[C@](C)(OCc1ccc(-c2ccccc2)cc1)C(=O)NO` showed an IC50 in data set [1] of 25 nM. Further, the MIC in [2] was 0.19 µg/mL (≈ 0.498 µM); in [3], 33 µg/mL (≈ 86.5 µM).
The molecule `C[C@@H](N)[C@@H](NC(=O)N1CCN(c2ccc(C#Cc3ccccc3)cc2)CC1)C(=O)NO` showed an MIC in data set [4] of 12.5 µg/mL (≈ 29.7 µM).
The molecule `C[C@@](OCc1ccc(-c2ccccc2)cc1)(C(=O)NO)[C@@H](O)c1ccn[nH]1` had an IC50 in data set [1] of 0.4 nM. For the same molecule, the MIC in data set [2] is 0.25 µg/mL (≈ 0.68 µM); in data set [3], 4 µg/mL (≈ 10.9 µM).
On to `CC(CO)(OCc1ccc(-c2ccccc2)cc1)C(=O)NO` (racemic), for which the figures for the MIC in data set [4], in [2] and in [3] were over 64 µg/mL, 4 µg/mL (≈ 13.3 µM) and over 64 µg/mL, respectively. This molecule yielded an IC50 in data set [1] of 22 nM. Besides, the half-life in data set [5] was found to be 6 h. Moreover, the solubility kinetic in data set [7] turned out to be 200 µM (≈ 60.3 µg/mL).
Turning to `CCOCC[C@H](O)[C@](C)(OCc1ccc(-c2ccccc2)cc1)C(=O)NO`, 28 nM corresponded to half-maximal inhibition in [1] (IC50). Also, the MIC in [2] and in data set [3] was over 64 µg/mL each time.
Consider `C[C@@](OCc1ccc(-c2ccccc2)cc1)(C(=O)NO)[C@@H](O)c1ccccc1`, for which the IC50 in [1] was 51 nM. The MIC in [2] was 8 µg/mL (≈ 21.2 µM); in data set [3], over 64 µg/mL.
For the molecule `C[C@@](OCc1ccc(-c2ccccc2)cc1)(C(=O)NO)[C@@H](O)c1c[nH]cn1`, the IC50 in data set [1] was found to be 0.8 nM. For the same molecule, the MIC in data set [2] was 0.125 µg/mL (≈ 0.34 µM); in data set [3], 8 µg/mL (≈ 21.8 µM).
`CC(C)(OCc1ccc(-c2ccccc2)cc1)C(=O)NO` displayed an MIC in [4] of over 64 µg/mL. Besides, in [1], the IC50 stood at 311 nM.
In turn, `C[C@](OCc1ccc(-c2ccccc2)cc1)(C(=O)NO)[C@@H](O)c1ccccn1` displayed an IC50 in data set [1] of 15 nM. Moreover, the minimal inhibitory concentration (MIC) in data set [2] is 0.25 µg/mL (≈ 0.661 µM); in data set [3] it was 32 µg/mL (≈ 84.6 µM).
